These results are taken from paper PMC12454639, “Direct disassembly of α-syn preformed fibrils into α-syn monomers by an all-D-peptide” (NPJ Parkinson's Disease, 2025).

Test [1] concerns the target T1, α-syn monomer (full-length) (Homo sapiens, UniProt P37840).
T1 construct: made in house; host or cells: E. coli BL21(DE3), co-expressed with pNatB (N-terminal acetylation enzyme from Schizosaccharomyces pombe)
As to the kind of experiment: SPR single-cycle kinetics, peptide immobilized, α-syn as analyte. It is filed as binding. The following applies: for deviation from 1:1 model (additional binding mode): suggested from deviation of fits for later injections. The method, then:
The experiment was performed as an individual measurement. […] The non-referenced signal of the active and referenced surface is shown in Supplementary Fig. 7. […] Full-length α-syn was injected for 100 s at 30 µl/min in PBS 7.4 in a serial dilution ranging from 15 to 250 nM, followed by a dissociation time of 60 min. Y-axis scaling was adjusted to (A).
Measurements were performed using an 8K Biacore device (Cytiva, USA). Interactions were measured using single-cycle kinetics experiments. For all assays, the peptide compounds were immobilized as ligand on the sensor surface and recombinant α-syn was injected as analyte in the flow. […] Surface quenching was performed using 1 M ethanolamine, pH 8.3. The kinetic experiments were performed using a flow rate of 30 µl/min in PBS pH 7.4 if not otherwise stated. The surface was regenerated in between cycles using 30 s injections of 2 M Gua-HCl at 30 µl/min. Data evaluation was performed using Biacore Insight Evaluation Software v3.0 (Cytiva, USA).

A further test concerns PC12 cells. It is filed as cell-based. The following applies: for PC12 cell viability with PFF: 24 h. The method, then:
PC12 cells (Leibniz Institute DSMZ, GE) were cultivated on collagen A-coated (Biochrom GmbH, GE) tissue culture flasks in RPMI 1640 medium supplemented with 5% fetal calf serum and 10% horse serum in a 95% humidified atmosphere with 5% CO2 at 37 °C. 10,000 cells per well in a volume of 100 µl were seeded on collagen A-coated 96-well plates (Thermo Fisher Scientific, USA) and were incubated for 24 h at 37 °C and 300 rpm in a thermo cycler. […] In addition, 15 µM of the peptides alone, cell media, buffer without peptides and 0.1% Triton X-100 (cytotoxic compound) served as controls. After further incubation in a 95% humidified atmosphere with 5% CO2 at 37 °C for 24 h, cell viability was measured using the Cell Proliferation Kit I (MTT) (Roche Applied Science, CH) according to the manufacturer’s protocol. The MTT formazan product was quantified by measuring the absorbance at 570 nm corrected by subtraction of the absorbance at 660 nm in a FLUOStar Optima plate reader (BMG Labtech, GE). All results were normalized to untreated cells grown in medium only. Test on significance was performed using one-way ANOVA with Bonferroni post hoc analysis (OriginPro 2020, OriginLab, USA; n = 4).
Test on significance was performed using one-way ANOVA with Bonferroni post hoc analysis: * […], *** p ≤ 0.01. Mean data are shown with ±SD (n = 4). While the cell viability was reduced by 50 % in the presence of 30 nM soluble small α-syn PFF alone, no toxic effect of the compounds on PC12 was observed. […] Thus, similar cell viability saving effects were found for SVD-1a using a 30-fold lower concentration.

In another test the test system is small α-syn PFF seeds. As to the kind of experiment: Seeded ThT aggregation assay. It is filed as biochemical. The following applies: then 20 µM α-syn monomer, n = 3. As to the method: The Thioflavin T (ThT) assay is commonly used for the visualization of α-syn fibrilization, since the dye ThT is able to bind to the amyloidogenic cross-β-sheet proportions of fibril structures. Recombinant α-syn was thawed on ice and centrifuged for 30 min at 21,000 × g and 4 °C. The concentration of the supernatant was determined as described previously. Lyophilized D-peptides were thawed at RT for 1 h and dissolved in 500 µl PBS pH 7.4. After centrifugation for 30 min at 21,000 × g the supernatant concentration was determined by UV–vis using the corresponding extinction coefficient at A280. All ThT assay experiments were performed at 37 °C with 15 µM ThT and 0.05% sodium azide (w/v) in PBS pH 7.4 if not otherwise stated. ThT fluorescence was monitored with bottom optics at λex = 448 nm and λem = 482 nm in a fluorescence plate reader with orbital averaging on 3 mm (Clariostar or Polarstar Optima, BMG labtech, GE). Prior to measurement start, 120 µl sample solution was transferred to a non-binding 96-half area well plate with transparent flat bottom (Corning, USA). One borosilicate glass bead (d = 3.0 mm, Hilgenberg, GE) was added to each well for all de novo aggregation assays. For seeded aggregation assays, no bead was used, and samples were incubated under quiescent conditions. Wells that surrounded the sample wells were filled with the same volume of buffer to improve heat distribution. Experiments were performed with five replicates (n = 5) if not otherwise stated.
ThT assay was used for different purposes. […] Lag-time and t½ were calculated as described previously. […] Measurements were taken every 5 min (n = 3).
small α-syn PFF seeds were prepared as described previously with some modifications. First, insoluble PFF were produced by incubation of 300 µM recombinant α-syn in a LoBind reaction tube (Eppendorf GmbH, GE) with one borosilicate glass bead (d = 3.0 mm; Hilgenberg, DE) in 20 mM NaPi, pH 7.0, 150 mM NaCl, 0.05% (w/v) sodium azide for one week at 37 °C. The insoluble PFF were harvested by ultracentrifugation at 100,000 × g for 30 min at 4 °C, and the pellet was washed several times with 20 mM NaPi, pH 7.0, 150 mM NaCl. The monomer equivalent concentration was determined by measuring the α-syn concentration in the supernatant after the first centrifugation and subtracting it from the start concentration for fibrilization. […]
ThT fluorescence progression was measured in a 96-well non-binding half-area plate (Corning, USA) with a FLUOStar platereader (BMG labtech, GE) at λex = 448 nm and λem = 482 nm. […] 10 µM α-syn monomer was incubated with 5, 10 and 20 µM peptide at 37 °C, adding one borosilicate glass bead per well (d = 3.0 mm, Hilgenberg, GE) with continuous orbital shaking at 300 rpm in between reads. […]

“Also recorded” adds a separate entry of the source. Read-outs that look alike come from different tables or passages of the source. Square brackets hold non-standard residues; d marks the D form. Peptide text beside a SMILES is read from it.

In the case of `CC[C@@H](C)[C@@H](NC(=O)[C@@H](Cc1c[nH]cn1)NC(=O)[C@@H](CCC(=O)O)NC(=O)[C@@H](CCC(N)=O)NC(=O)[C@@H](Cc1c[nH]c2ccccc12)NC(=O)[C@@H](Cc1ccc(O)cc1)NC(=O)[C@H](NC(=O)[C@@H](CCC(=O)O)NC(=O)[C@@H](Cc1c[nH]cn1)NC(=O)[C@H](NC(=O)[C@H]1CCCN1C(=O)[C@@H](CCSC)NC(=O)[C@H](N)CCCCN)[C@H](C)O)[C@H](C)O)C(=O)N[C@H](Cc1c[nH]c2ccccc12)C(=O)N[C@H](Cc1c[nH]cn1)C(=O)N[C@H](C)C(N)=O` [SVD-1] (H-[dK][dM][dP][dT][dH][dE][dT][dY][dW][dQ][dE][dH][dI][dW][dH][dA]-NH2), the “deviation from 1:1 model (additional binding mode)” value in test [1] is “additional low-affinity binding mode in the higher nM range”. Moreover, in the test on PC12 cells (15 µM), the “PC12 cell viability with PFF” value amounted to 89%. Moreover, the “inhibition of seeded aggregation” value with small α-syn PFF seeds (50 nM small α-syn PFF pre-incubated 20 h with peptide, 37 °C quiescent) is “significantly decelerate amyloid growth in the seeded environment; also recorded: inhibits elongation and secondary nucleation of α-syn”.

What is called Kd is the equilibrium constant for the complex coming apart. What is called koff is the rate constant with which the complex falls apart. The term kon denotes the rate constant with which the complex forms. Read a low kon as slower complex formation. `CC[C@@H](C)[C@@H](NC(=O)[C@@H](Cc1c[nH]cn1)NC(=O)[C@@H](CCC(=O)O)NC(=O)[C@@H](CCC(N)=O)NC(=O)[C@@H](Cc1c[nH]c2ccccc12)NC(=O)[C@@H](Cc1ccc(O)cc1)NC(=O)[C@H](NC(=O)[C@@H](CCC(=O)O)NC(=O)[C@@H](Cc1c[nH]cn1)NC(=O)[C@H](NC(=O)[C@H]1CCCN1C(=O)[C@@H](CC(C)C)NC(=O)[C@H](N)CCCNC(=N)N)[C@H](C)O)[C@H](C)O)C(=O)N[C@H](Cc1c[nH]c2ccccc12)C(=O)N[C@H](Cc1c[nH]cn1)C(=O)N[C@H](C)C(=O)N[C@H](CCCNC(=N)N)C(=O)N[C@H](CCCNC(=N)N)C(=O)N[C@H](CCCNC(=N)N)C(=O)N[C@H](CCCNC(=N)N)C(=O)N[C@H](CCCNC(=N)N)C(N)=O` [SVD-1a] (H-[dR][dL][dP][dT][dH][dE][dT][dY][dW][dQ][dE][dH][dI][dW][dH][dA][dR][dR][dR][dR][dR]-NH2): in test [1], the Kd worked out at 100 pM and the “deviation from 1:1 model (additional binding mode)” value was “additional low-affinity binding mode in the higher nM range”. For the same compound, the koff in test [1] (1:1 Langmuir-based model, immobilized peptide, α-syn analyte, PBS pH 7.4, dissociation 60 or 30 min, individual measurement) amounted to 3.13e-05 s⁻¹. In test [1] (1:1 Langmuir-based model, immobilized peptide, α-syn analyte, PBS pH 7.4, individual measurement), this compound yielded a kon of 313000 M⁻¹ s⁻¹. In test [1] (comparison of SVD-1a and SVD-1a_scr.+5r), the “sequence specificity of binding” value is reported as “sequence-specific”. Also, the “fold lower concentration for similar cell viability saving effect vs SVD-1” value in the test with PC12 cells (0.5 µM SVD-1a vs 15 µM SVD-1) was 30 -fold. Moreover, in the test with PC12 cells (0.5 µM), the “PC12 cell viability with PFF” value stood at 82%. Further, the “effect on elongation rate” value in the test with small α-syn PFF seeds (5 µM peptide, 50 nM PFF pre-incubated 20 h) is given as “a reduction of the elongation rate was observed”. The inhibition of seeding entry in the test with small α-syn PFF seeds (20 µM or higher peptide (20 µM for SVD-1_scrambled+5r), 50 nM PFF pre-incubated 20 h) is reported as “complete inhibition of the seeding capacity”.
